Reference: patent publication US20190336602A1, “STERILISATION OF S-NITROSOTHIOLS” (Salupont Consulting Ltd., priority 2015, published 2019)
Read-outs that look alike come from different tables or passages of the source.

Columns and labels:
[1] = cited from earlier work
[2] = liquid formulation, after at least 8-12 hours at 4 °C to 25 °C (Looker et al., 2008); cited from earlier work
[3] = gamma sterilisation of S-nitrosoglutathione at constrained temperatures (Example 2), HPLC purity and impurities vs non-irradiated control; format: physicochemical
Description: The experimental protocol for this Example aims to test in a controlled manner the effects on purity of a sterilizing irradiation temperature (a) at about −80° C. and (b) under positive cooling (with surrounding air temperature in the range about 18 to 24° C. and with the temperature of the vials controlled). The same radiation doses as described for Example 1 were applied. For this Example, S-nitrosoglutathione granule samples, from the same single manufacturing batch as in Example 1, contained in amber glass vials (100 mg/vial) were stored before sterilisation at about −80° C. The irradiation process at −80° C. was achieved by the presence of dry ice, which was placed to ensure low temperature of the vials but without influencing the radiation dose delivery characteristics. The matching controls were not irradiated but underwent similar conditions of thermal management before, during and after irradiation, as compared with the S-nitrosoglutathione vials that were irradiated. The gamma radiation was performed using gamma radiation emitted from cobalt-60 radioactive sources. The S-nitrosoglutathione vials were stored at −80° C. in a freezer and transferred to a dry ice container before irradiation. Before the start of irradiation, the S-nitrosoglutathione vials destined for irradiation at ambient temperature (and control vials) were removed from the −80° C. freezer and transferred to a location where the surrounding temperature was controlled at 18° C. Individual low-temperature containers were used for the samples designated for each target dose and condition of thermal management, as described above in relation to the e-beam arm of this Example. The secondary packaging was placed in the lateral centre at the bottom of first low-temperature container, with the vials oriented upright. […] The arrows marked “γ” show the direction of the radiation. For the S-nitrosoglutathione product requiring cold chain management, dry ice was placed at each lateral short side of the low-temperature container to ensure a cold chain was maintained during the irradiation process. Each low-temperature container was placed in the lateral centre of an irradiation container. The 15 kGy radiation dose lasted 2 hours and 8 minutes whereas the 35 kGy dose lasted about 5 hours and 8 minutes. When necessary, the dry ice was replenished before execution of the second irradiation. Following completion of the irradiation process, the irradiated S-nitrosoglutathione products were placed in the designated −80° C. freezer. The control samples were moved from the 18° C. controlled location to the designated −80° C. freezer upon completion of the second irradiation. The time of transfer was recorded.

[4] = e-beam sterilisation of S-nitrosoglutathione at unconstrained temperature (Example 1), HPLC purity and impurities vs non-irradiated control; format: physicochemical; details: ~27.5 °C
Description: S-nitrosoglutathione granule samples from a single manufacturing batch, contained in glass vials (up to 250 mg/vial), were stored before sterilisation surrounded by dry ice (solid CO2) at about −80° C. The matching controls were not irradiated but underwent similar conditions of storage and thermal management before, during and after irradiation, as compared with the S-nitrosoglutathione vials that were irradiated. The control purity levels of the S-nitrosoglutathione, and the level of specific impurities glutathione (GSH) and oxidised glutathione (GSSG) content and total impurities content, were analysed. Vials were exposed to either electron beam (e-beam) irradiations or to gamma irradiations. The vials were removed from the dry ice container and sterilised via two radiation dose conditions (15 kGy and 35 kGy) described below under higher temperature conditions (with surrounding air temperature in the range about 18 to 24° C. and with the temperature of the vials free to fluctuate to higher temperature). After irradiation, the vials were immediately surrounded by dry ice at about −80° C. and analysed for post-sterilisation determination of any changes in purity against the control. The e-beam radiation was performed using a moving carrier system set up for delivering a 15 kGy dose and a 35 kGy dose. The 15 kGy radiation dose lasted about 10-15 minutes and the temperature reached approximately equal to 27.5° C. (designated 27.5° C. in the Tables and Figs.). The 35 kGy radiation dose lasted about 30 minutes and the temperature reached approximately equal to 27.5° C. (designated ˜27.5° C. in the Tables and the Figs.). The radiation doses were measured by conventional dosimeters.

[5] = gamma sterilisation of S-nitrosoglutathione at unconstrained temperature (Example 1), HPLC purity and impurities vs non-irradiated control; format: physicochemical
Description: S-nitrosoglutathione granule samples from a single manufacturing batch, contained in glass vials (up to 250 mg/vial), were stored before sterilisation surrounded by dry ice (solid CO2) at about −80° C. The matching controls were not irradiated but underwent similar conditions of storage and thermal management before, during and after irradiation, as compared with the S-nitrosoglutathione vials that were irradiated. The control purity levels of the S-nitrosoglutathione, and the level of specific impurities glutathione (GSH) and oxidised glutathione (GSSG) content and total impurities content, were analysed. Vials were exposed to either electron beam (e-beam) irradiations or to gamma irradiations. The vials were removed from the dry ice container and sterilised via two radiation dose conditions (15 kGy and 35 kGy) described below under higher temperature conditions (with surrounding air temperature in the range about 18 to 24° C. and with the temperature of the vials free to fluctuate to higher temperature). After irradiation, the vials were immediately surrounded by dry ice at about −80° C. and analysed for post-sterilisation determination of any changes in purity against the control. The gamma radiation was performed using a moving carrier system set up for delivering a 15 kGy dose and a 35 kGy dose. The 15 kGy dose radiation lasted about 8-10 hours and the temperature reached up to 40° C. The 35 kGy dose radiation lasted about 18-24 hours, with a temperature reaching up to 60° C. The radiation doses received were measured by conventional dosimeters.

[6] = e-beam sterilisation of S-nitrosoglutathione at constrained temperatures (Example 2), HPLC purity and impurities vs non-irradiated control; format: physicochemical; details: few sec.
Description: The experimental protocol for this Example aims to test in a controlled manner the effects on purity of a sterilizing irradiation temperature (a) at about −80° C. and (b) under positive cooling (with surrounding air temperature in the range about 18 to 24° C. and with the temperature of the vials controlled). The same radiation doses as described for Example 1 were applied. For this Example, S-nitrosoglutathione granule samples, from the same single manufacturing batch as in Example 1, contained in amber glass vials (100 mg/vial) were stored before sterilisation at about −80° C. The irradiation process at −80° C. was achieved by the presence of dry ice, which was placed to ensure low temperature of the vials but without influencing the radiation dose delivery characteristics. The matching controls were not irradiated but underwent similar conditions of thermal management before, during and after irradiation, as compared with the S-nitrosoglutathione vials that were irradiated. The e-beam radiation was performed using a moving carrier system. The S-nitrosoglutathione vials were stored at −80° C. freezer and transferred to a dry ice container before irradiation. Before the start of irradiation the S-nitrosoglutathione vials destined for irradiation at ambient temperature (and control vials) were removed from the −80° C. freezer and transferred to a location where the surrounding air temperature is controlled at 18° C. Individual low-temperature containers were used for the vials designated for each target dose and condition of thermal management. A secondary packaging box was placed in the lateral centre at the bottom of the first low-temperature container, with the vials oriented upright. The position of each vial in the configuration was documented. The vials were always irradiated from the same side. […] The arrows marked “e” show the direction of the radiation. For the S-nitrosoglutathione vials requiring cold chain management, dry ice was placed at each lateral short side of the container to ensure a cold chain was maintained during the irradiation process. Each container was placed in an irradiation container. Both the 15 kGy e-beam and 35 kGy radiation doses lasted a few seconds. Following completion of the desired irradiation process, the irradiated S-nitrosoglutathione containing vials and correspondent controls were stored at −80° C. in a freezer for subsequent analysis.

GSH impurity (% unit change) ([3]; 15 kGy, ~2 h, <27.5 °C): 0.17%
GSNO purity (decrease % of control) ([3]; 15 kGy, ~2 h, <27.5 °C): −0.67%
GSSH impurity (% unit change) ([3]; 15 kGy, ~2 h, <27.5 °C): 0.14%
Total impurities (% unit changes) ([3]; 15 kGy, ~2 h, <27.5 °C): 0.63%
GSH impurity (% unit change) ([3]; 15 kGy, ~2 h, −80 °C): 0.11%
GSNO purity (decrease % of control) ([3]; 15 kGy, ~2 h, −80 °C): −0.26%
GSSH impurity (% unit change) ([3]; 15 kGy, ~2 h, −80 °C): 0.11%
Total impurities (% unit changes) ([3]; 15 kGy, ~2 h, −80 °C): 0.25%
GSH impurity (% unit change) ([3]; 35 kGy, ~5 h, <32.5 °C): 0.43%
GSNO purity (decrease % of control) ([3]; 35 kGy, ~5 h, <32.5 °C): −2.2%
GSSH impurity (% unit change) ([3]; 35 kGy, ~5 h, <32.5 °C): 0.36%
Total impurities (% unit changes) ([3]; 35 kGy, ~5 h, <32.5 °C): 2.11%
GSH impurity (% unit change) ([3]; 35 kGy, ~5 h, −80 °C): 0.29%
GSNO purity (decrease % of control) ([3]; 35 kGy, ~5 h, −80 °C): −1.01%
GSSH impurity (% unit change) ([3]; 35 kGy, ~5 h, −80 °C): 0.36%
Total impurities (% unit changes) ([3]; 35 kGy, ~5 h, −80 °C): 0.96%
GSH impurity (% unit change) ([4]; 15 kGy, 10-15 minutes): 0.17%
GSNO purity (decrease % of control) ([4]; 15 kGy, 10-15 minutes): −0.55%
GSSH impurity (% unit change) ([4]; 15 kGy, 10-15 minutes): 0.11%
Total impurities (% unit changes) ([4]; 15 kGy, 10-15 minutes): 0.53%
GSH impurity (% unit change) ([4]; 35 kGy, ~30 minutes): 0.36%
GSNO purity (decrease % of control) ([4]; 35 kGy, ~30 minutes): −1.37%
GSSH impurity (% unit change) ([4]; 35 kGy, ~30 minutes): 0.32%
Total impurities (% unit changes) ([4]; 35 kGy, ~30 minutes): 1.26%
GSH impurity (% unit change) ([5]; 15 kGy, 8-10 hours, <40 °C): 0.34%
GSNO purity (decrease % of control) ([5]; 15 kGy, 8-10 hours, <40 °C): −4.47%
GSSH impurity (% unit change) ([5]; 15 kGy, 8-10 hours, <40 °C): 1.25%
Total impurities (% unit changes) ([5]; 15 kGy, 8-10 hours, <40 °C): 4.25%
GSH impurity (% unit change) ([5]; 35 kGy, 18-24 hours, <60 °C): 0.15%
GSNO purity (decrease % of control) ([5]; 35 kGy, 18-24 hours, <60 °C): −9.45%
GSSH impurity (% unit change) ([5]; 35 kGy, 18-24 hours, <60 °C): 6.63%
Total impurities (% unit changes) ([5]; 35 kGy, 18-24 hours, <60 °C): 9.12%
GSH impurity (% unit change) ([6]; 15 kGy, <27.5 °C): 0.13%
GSNO purity (decrease % of control) ([6]; 15 kGy, <27.5 °C): −0.28%
GSSH impurity (% unit change) ([6]; 15 kGy, <27.5 °C): 0.13%
Total impurities (% unit changes) ([6]; 15 kGy, <27.5 °C): 0.27%
GSH impurity (% unit change) ([6]; 15 kGy, −80 °C): 0.10%
GSNO purity (decrease % of control) ([6]; 15 kGy, −80 °C): −0.16%
GSSH impurity (% unit change) ([6]; 15 kGy, −80 °C): 0.10%
Total impurities (% unit changes) ([6]; 15 kGy, −80 °C): 0.16%
GSH impurity (% unit change) ([6]; 35 kGy, <27.5 °C): 0.29%
GSNO purity (decrease % of control) ([6]; 35 kGy, <27.5 °C): −1.12%
GSSH impurity (% unit change) ([6]; 35 kGy, <27.5 °C): 0.23%
Total impurities (% unit changes) ([6]; 35 kGy, <27.5 °C): 1.08%
GSH impurity (% unit change) ([6]; 35 kGy, −80 °C): 0.23%
GSNO purity (decrease % of control) ([6]; 35 kGy, −80 °C): −0.55%
GSSH impurity (% unit change) ([6]; 35 kGy, −80 °C): 0.07%
Total impurities (% unit changes) ([6]; 35 kGy, −80 °C): 0.54%
SMILES: N[C@@H](CCC(=O)N[C@@H](CSN=O)C(=O)NCC(=O)O)C(=O)O [GSNO, S-nitrosoglutathione]
time reported to be stable on storage ([1]; solid prepared by a specific method, further controlled air, radiation and temperature conditions (Looker et al., 2008; WO 2008/153762)): 9 months
time reported to be stable on storage ([1]; solid, inert atmosphere (argon and nitrogen), −20 °C, in the dark (Parent et al., 2013)): 6 months
initial S-nitrosoglutathione present after storage [2]: about 85%
